Measurements published in paper PMC12705620 (Frontiers in Pharmacology, 2025).
Bridge positions count the residues as written; N and C are the ends. Square brackets hold non-standard residues; d marks the D form. Peptide text beside a SMILES is read from it. I, II: the chains in the order shown. Dap = NC[C@H](N)C(=O)O; Ahx = NCCCCCC(=O)O

What was measured:
S. aureus JAR060131 = experiment: Bactericidal (time-kill) kinetics; assay type: cell-based, Staphylococcus aureus; settings: for Time to complete bacterial eradication: all tested concentrations (0.94, 1.88, 3.75 µM); for Log reduction in CFU: within 5 min at 3.75 µM
Experimental: (§1) Time-kill kinetics were evaluated against S. aureus JAR060131 and A. baumannii RUH875. Mid-logarithmic phase bacterial cultures were diluted to a final concentration of 1 × 10^6 CFU/mL in PBS. Bacteria were incubated with 0.5-, 2-, and 4-fold the LC99.9. Assays were conducted in polypropylene tubes (Micronics) with a total volume of 500 µL. Control samples consisted of bacteria incubated in PBS alone. At 1, 5, 30, and 120 min, 50 µL samples were collected and immediately added to 50 µL of 0.05% (v/v) sodium polyanethol sulfonate (SPS; Sigma-Aldrich) in PBS to neutralize residual peptide activity ([Dankert et al., 1995]). Viable bacterial counts were determined by plating 10 µL of serial 10-fold dilutions onto BA plates. Colonies were counted after 24 h of incubation at 37 °C. All conditions were performed in triplicate.

A. baumannii RUH875 = experiment: Bactericidal (time-kill) kinetics; assay type: cell-based, Acinetobacter baumannii; settings: for Time to complete killing: 3.75 µM peptide
Experimental: as §1

[1] = tested on: HaCaT human keratinocytes; experiment: Cytotoxicity (WST-1 and LDH); assay type: cell-based
Experimental: (§2) Cells (5 × 10^5 cells/mL) were seeded in 96-well plates (100 μL/well; Thermo Scientific) and allowed to adhere for 24 h. After adhesion, monolayers were exposed to two-fold serial dilutions of the tetrameric and reference peptides (final concentrations: 60–0.05 µM) in fresh DMEM containing 2% (v/v) FBS, and incubated for 24 h at 37 °C in a humidified 5% CO2 atmosphere. Cell viability was assessed using the water-soluble tetrazolium salt (WST-1; Roche) assay, and membrane integrity was measured using the lactate dehydrogenase (LDH) release assay (Abcam), following manufacturer instructions. Absorbance was measured using the Synergy H1 microplate reader (Biotek). Results are expressed as percentages relative to untreated control (for WST-1) and positive lysis control (for LDH) and all experiments were performed in triplicate.

[2] = tested on: human skin fibroblast cells (BJ); experiment: Cytotoxicity (WST-1 and LDH); assay type: cell-based
Experimental: as §2

[3] = tested on: S. aureus RN4220 (mCherry) in dTHP-1 macrophages; experiment: Intracellular bacterial killing in macrophages; assay type: cell-based, Staphylococcus aureus; settings: 24 h pre-treatment at 1 µM and 2 µM, MOI 2, CFU after lysis, versus no treatment
Experimental: Human monocytes (THP-1; TIB-202; ATCC) were cultured in RPMI 1,640 medium (Gibco) supplemented with 10% FBS. For differentiation into macrophage-like cells (dTHP-1), THP-1 monocytes were seeded in 96-well plates at 3 × 10^4 cells/well (100 µL) in RPMI supplemented with 50 ng/mL phorbol 12-myristate 13-acetate (PMA; Sigma-Aldrich), and incubated for 48 h. The protocol for intracellular killing was adapted from Tang et al. ([Tang et al., 2015]) with modifications. After differentiation, dTHP-1 cells were pre-treated with one or 2 µM peptide solutions in fresh RPMI for 24 h. Subsequently peptides were removed by washing three times with PBS. An mCherry-expressing S. aureus strain, prepared as described in Section 5.2, was used. This strain is efficiently internalized by macrophages ([Cuypers et al., 2024]). Bacteria were added to dTHP-1 cells at a multiplicity of infection (MOI) of 2:1 and incubated for 45 min at 37 °C with 5% CO2 for phagocytosis. Extracellular bacteria were then removed by washing the wells three times with 60 µL PBS, followed by a final wash with 200 µL PBS.dTHP-1 cells were either lysed immediately to quantify the number of intracellular bacteria, after phagocytosis (T = 0 h) or were incubated for 24 h (T = 24 h) in RPMI supplemented with 10 μg/mL gentamicin (Sigma-Aldrich) to inhibit extracellular bacterial growth (in both peptide-treated and control dTHP-1 cells). Internalized bacteria were quantified after lysing the cells with 0.025% Triton X-100 in PBS for 15 min. Lysates were serially diluted (both at 0 h and 24 h) and plated onto BA for CFU enumeration to assess intracellular bacterial survival.

[4] = tested on: S. aureus LUH14616 (MRSA); experiment: Ex vivo human skin wound infection model; set-up: species or system Staphylococcus aureus
Description: Human skin from 3 donors was obtained via the Residual Tissue Biobank of the Red Cross Hospital (Beverwijk, Netherlands). The use of these coded, post-operative residual tissue samples was approved by patients through the informed opt-out-plus protocol of the Red Cross Hospital Skin ([Code-of-Conduct-for-Health-Research, 2022]) and processed for an ex vivo wound infection model as described ([Dijksteel et al., 2020]). The Wounded skin grafts were sectioned into approximately 1 cm^2 samples using a sterile scalpel and were decontaminated by immersion in 70% ethanol for 30 min, followed by three PBS washes. Samples were placed dermis-down and wound-side-up on stainless steel grids with central indentations, positioned in 12-well plates, and cultured at the air–liquid interface in DMEM at 37 °C and 5% CO2. To confine reagents to the wound area, a resin barrier (OpalDam; Ultradent) was applied to the wounded area and polymerized using a hand-held UV light (Valo X) for 10 s. The wounds were then topically infected with 10 µL of S. aureus LUH14616 suspension of 1 × 10^7 CFU/mL (final dose: 1 × 10^5 CFU/graft) in PBS for 1 h, followed by topical application of 10 µL of peptide solution for 4 h. Chlorhexidine (0.5% (v/v) in 70% ethanol; Entick B.V.) and PBS were used as positive and negative controls, respectively. After treatment, tissue samples were transferred to polypropylene vials containing 1 mL PBS supplemented with 0.025% (v/v) SPS and a 7 mm stainless steel bead. Homogenization was performed using a MagnaLyser System (Roche) with three 30-s cycles at 7,000 rpm, with 30 s of cooling on ice between cycles. Homogenates were 10-fold serially diluted in PBS, and 100 µL aliquots were plated on BA plates. CFUs were enumerated after overnight incubation at 37 °C.

[5] = 20 µM and 200 µM topical, 1 h infection, 4 h treatment, versus PBS (Figure 4B)

SMILES	Time to complete bacterial eradication (S. aureus JAR060131)	Log reduction in CFU (S. aureus JAR060131) [log]	Time to complete killing (A. baumannii RUH875) [min]	Cytotoxicity, LDH leakage [1] [µM]	Cytotoxicity, Metabolic activity [1] [µM]	Cytotoxicity, LDH leakage [2] [µM]	Cytotoxicity, Metabolic activity [2] [µM]	Macrophage reduction of intracellular S. aureus burden 24 h post-phagocytosis [3]	Reduction of bacterial load (CFU counts) [4, 5]	Log reduction in CFU (A. baumannii RUH875; within 1 min at 3.75 µM) [log]	Cytotoxicity threshold (tolerance), WST-1 and LDH [1] [µM]	Cytotoxicity threshold (tolerance), WST-1 and LDH [2] [µM]	Reduction of bacterial load after different infection durations ([4]; 200 µM for 4 h, started 0.5, 1 or 2 h post-infection (Figure 4D))	Reduction of bacterial load (CFU counts) ([4]; 200 µM topical, 4 h treatment, versus PBS (Figure 4B), p < 0.05)	Reduction of bacterial load (CFU counts) ([4]; 200 µM topical, 4 h treatment, versus untreated control (Figure 4C), p < 0.001)	Effective bactericidal concentration ([4]; ex vivo wounded human skin, 4 h treatment) [µM]
N=C(N)NCCC[C@H](NC(=O)[C@H](Cc1c[nH]c2ccccc12)NC(=O)[C@H](CCC(N)=O)NC(=O)[C@H](Cc1c[nH]c2ccccc12)NC(=O)[C@H](CCCNC(=N)N)NC(=O)[C@@H](N)CCCNC(=N)N)C(=O)NCCCC[C@H](NC(=O)[C@H](CCCNC(=N)N)NC(=O)[C@H](Cc1c[nH]c2ccccc12)NC(=O)[C@H](CCC(N)=O)NC(=O)[C@H](Cc1c[nH]c2ccccc12)NC(=O)[C@H](CCCNC(=N)N)NC(=O)[C@@H](N)CCCNC(=N)N)C(=O)NCCCCCC(=O)N[C@@H](CSSC[C@H](NC(=O)CCCCCNC(=O)[C@H](CCCCNC(=O)[C@H](CCCNC(=N)N)NC(=O)[C@H](Cc1c[nH]c2ccccc12)NC(=O)[C@H](CCC(N)=O)NC(=O)[C@H](Cc1c[nH]c2ccccc12)NC(=O)[C@H](CCCNC(=N)N)NC(=O)[C@@H](N)CCCNC(=N)N)NC(=O)[C@H](CCCNC(=N)N)NC(=O)[C@H](Cc1c[nH]c2ccccc12)NC(=O)[C@H](CCC(N)=O)NC(=O)[C@H](Cc1c[nH]c2ccccc12)NC(=O)[C@H](CCCNC(=N)N)NC(=O)[C@@H](N)CCCNC(=N)N)C(N)=O)C(N)=O [LBT] (I: H-RRWQWRK[Ahx]C-NH2 / II: H-RRWQWRK[Ahx]C-NH2 / III: H-RRWQWR / IV: H-RRWQWR; amide I:7-III:C, II:7-IV:C; disulfide I:9-II:9; N-terminus and C-terminus assumed)	up to 120 min	> 3	120	30	30	15	30	significantly enhanced	minimal and non-significant reductions	–	–	–	–	–	–	–
N=C(N)NCCC[C@H](NC(=O)[C@H](Cc1c[nH]c2ccccc12)NC(=O)[C@H](CCC(N)=O)NC(=O)[C@H](Cc1c[nH]c2ccccc12)NC(=O)[C@H](CCCNC(=N)N)NC(=O)[C@@H](N)CCCNC(=N)N)C(=O)NC[C@H](NC(=O)[C@H](CCCNC(=N)N)NC(=O)[C@H](Cc1c[nH]c2ccccc12)NC(=O)[C@H](CCC(N)=O)NC(=O)[C@H](Cc1c[nH]c2ccccc12)NC(=O)[C@H](CCCNC(=N)N)NC(=O)[C@@H](N)CCCNC(=N)N)C(=O)NCCCCCC(=O)N[C@@H](CSSC[C@H](NC(=O)CCCCCNC(=O)[C@H](CNC(=O)[C@H](CCCNC(=N)N)NC(=O)[C@H](Cc1c[nH]c2ccccc12)NC(=O)[C@H](CCC(N)=O)NC(=O)[C@H](Cc1c[nH]c2ccccc12)NC(=O)[C@H](CCCNC(=N)N)NC(=O)[C@@H](N)CCCNC(=N)N)NC(=O)[C@H](CCCNC(=N)N)NC(=O)[C@H](Cc1c[nH]c2ccccc12)NC(=O)[C@H](CCC(N)=O)NC(=O)[C@H](Cc1c[nH]c2ccccc12)NC(=O)[C@H](CCCNC(=N)N)NC(=O)[C@@H](N)CCCNC(=N)N)C(N)=O)C(N)=O [LBT-1] (I: H-RRWQWR[Dap][Ahx]C-NH2 / II: H-RRWQWR[Dap][Ahx]C-NH2 / III: H-RRWQWR / IV: H-RRWQWR; amide I:7-III:C, II:7-IV:C; disulfide I:9-II:9; N-terminus and C-terminus assumed)	up to 120 min	> 3	≤ 30	15	15	7.5	15	significantly enhanced	dose-dependent reduction	> 3	15	7.5 to 15	significantly reduced bacterial load in all groups	significant decrease	significantly reduced bacterial load	200
